Assay results reported in US7795226B2, “Control of radiation injury” (Biotempt B.V., priority 2006, dated 2010).

Experiments:
[1] = system: renal ischemia reperfusion in mice; assay: mouse renal ischemia reperfusion test; assay type: in vivo; parameters: BUN after 25 minutes renal ischemia, mean / Urea levels in dose-response experiment: unit not given here; details: for BUN concentration versus the PBS control group (in words) / mortality versus the PBS control group (in words) / BUN after 25 minutes renal ischemia, mean: 5 mg/kg i.v.; for mortality at 72 hours post-reperfusion: 5 mg/kg i.v. before and after 25 minutes clamping, dead/total
Protocol: Six oligopeptides (i.e., A: LAGV (SEQ ID NO:121); B: AQGV (SEQ ID NO:120); C: LAG; D: AQG; E: MTR; and F: MTRV (SEO ID NO:119)) were tested and compared with PBS (control) in a double blind animal study for each peptide's relative ability to aid recovery in a mouse renal ischemia reperfusion test. In this test, the mice were anesthetized, and one kidney from each mouse was removed. The other kidney was tied off for 25 minutes, and the serum urea levels were allowed to increase. Both before and after tying off, each of the separate peptides was administered to thirty (30) different mice (5 mg oligopeptide / kg body mass intravenously), after which, the mortality of the mice was determined for each oligopeptide as well as was the BUN concentration at two hours, 24 hours and 72 hours. The results are shown in Table 3 below (excluding the results of peptide A (LAGV (SEQ ID NO:121)) obtained in Example 3).
Under inhalation anesthesia, the left kidney with its artery and vein was isolated and occluded for 25 minutes using a microvascular clamp. During surgery, animals were placed on a heating pad to maintain body temperature at 37° C. Five minutes before placing the clamp, and five minutes before releasing the clamp, 5 mg/kg of peptide dissolved in 0.1 mL of sterile saline, was administered intravenously. After reperfusion of the left kidney, the right kidney was removed. Kidney function was assessed by measuring blood urea nitrogen before clamping, and at 2, 24, and 72 hours after reperfusion.
Peptides were tested at 0.3, 1, 3, 10 and 30 mg/kg dosages given as described in Example 3. P values (calculated by Mann Whitney U-test (SPSS for Windows)) of serum urea levels of PBS compared to peptide D groups at 72 hours post-clamping were at 0.3 mg/kg 0.001, at 1 mg/kg 0.009, at 3 mg/kg 0.02, at 10 mg/kg 0.000, and at 30 mg/kg 0.23; for peptide B (SEQ ID NO:120) groups, these P-values were 0.88, 0.054, 0.000, 0.001 and 0.003.

[2] = system: high dose LPS (E. coli 026:B6)-induced septic shock in BALB/c mice; assay: high dose LPS-induced septic shock, peptide administered twice; assay type: in vivo; details: peptide twice (t = 2 and 24 hours) 5 mg/kg
Protocol: Mice used in sepsis or septic shock experiments: Female BALB/c mice of eight to twelve weeks of age were used for all experiments. The animals were bred in our facility under specific pathogen-free conditions according to the protocols described in the […] of European Laboratory Animal Science Associations (FELASA) Working group on Animal Health (Laboratory Animals 28:1-24, 1994).
Injection protocols: For the endotoxin model, BALB/c mice were injected i.p. with 150-300 μg LPS (E. coli 026:B6; Difco Lab., Detroit, Mich., USA). Control groups were treated with PBS i.p. only. To test the effect of peptides, they were dissolved in PBS and injected i.p. at predetermined points in time after LPS treatment.
Mice were scored for sickness severity using the following measurement scheme: • 0 No abnormalities. • 1 Percolated fur, but no detectable behavior differences compared to normal mice. • 2 Percolated fur, huddle reflex, responds to stimuli (such as tap on cage), just as active during handling as healthy mouse. • 3 Slower response to tap on cage, passive or docile when handled, but still curious when alone in a new setting. • 4 Lack of curiosity, little or no response to stimuli, quite immobile. • 5 Labored breathing, inability or slow to self-right after being rolled onto back (moribund, sacrificed). • D Dead.
A second set of septic shock experiments were set up to determine which of the peptides LQG, LQGV (SEQ ID NO:117), VLPALP (SEQ ID NO:140), VLPALPQ (SEQ ID NO:143), MTR, MTRV (SEQ ID NO:119), VVC or AQG, AQGV (SEQ ID NO:120), LAG and LAGV (SEQ ID NO:121) were capable of inhibiting high dose LPS-induced septic shock in mice by treating mice with a double dose of peptide at two and 24 hours after LPS treatment. At each treatment, peptides were used at 5 mg/kg bodyweight. BALB/c mice were injected i.p. with high doses LPS (E. coli 026:B6; Difco Lab., Detroit, Mich. USA), predetermined to be leading to 80 to 100% mortality in 24 to 72 hours.

## AQGV
[1]; 0.3 mg/kg, 24 hours
  Mortality in dose-response experiment: 0-9
  Urea levels in dose-response experiment: 62.4
[1]; 0.3 mg/kg, 72 hours
  Mortality in dose-response experiment: 2-10
  Urea levels in dose-response experiment: 86.7
[1]; 1.0 mg/kg, 24 hours
  Mortality in dose-response experiment: 0-10
  Urea levels in dose-response experiment: 50.0
[1]; 1.0 mg/kg, 72 hours
  Mortality in dose-response experiment: 1-8
  Urea levels in dose-response experiment: 52.6
[1]; 3.0 mg/kg, 24 hours
  Mortality in dose-response experiment: 1-10
  Urea levels in dose-response experiment: 37.4
[1]; 3.0 mg/kg, 72 hours
  Mortality in dose-response experiment: 0-10
  Urea levels in dose-response experiment: 19.6
[1]
  BUN concentration versus the PBS control group (in words): reduced BUN concentration
  mortality versus the PBS control group (in words): significant reduction in mortality
  mortality at 72 hours post-reperfusion: 0/10
[1]; 10.0 mg/kg, 24 hours
  Mortality in dose-response experiment: 0-10
  Urea levels in dose-response experiment: 41.2
[1]; 10.0 mg/kg, 72 hours
  Mortality in dose-response experiment: 0-8
  Urea levels in dose-response experiment: 37.1
[1]; 30.0 mg/kg, 24 hours
  Mortality in dose-response experiment: 0-8
  Urea levels in dose-response experiment: 47.8
[1]; 30.0 mg/kg, 72 hours
  Mortality in dose-response experiment: 3-10
  Urea levels in dose-response experiment: 38.0
[1]; 2 hours after reperfusion
  BUN after 25 minutes renal ischemia, mean: 16.62
[1]; 24 hours after reperfusion
  BUN after 25 minutes renal ischemia, mean: 26.36
[1]; 72 hours after reperfusion
  BUN after 25 minutes renal ischemia, mean: 22.31
[1]; t = 0 hr (before clamping)
  BUN after 25 minutes renal ischemia, mean: 9.713
[2]; LPS dose 10.5
  mice with sickness score 1, effect at t = 24 hours: 2
  mice with sickness score 1, effect at t = 48 hours: 5
  mice with sickness score 2, effect at t = 24 hours: 3
[2]; LPS dose 11
  mice with sickness score 1, effect at t = 24 hours: 2
  mice with sickness score 1, effect at t = 48 hours: 6
  mice with sickness score 2, effect at t = 24 hours: 4

## LAGV (tetramer peptide)
[1]
  BUN concentration versus the PBS control group (in words): reduced BUN concentration
  mortality versus the PBS control group (in words): significant reduction in mortality
  mortality at 72 hours post-reperfusion: 6/10
[1]; 2 hours after reperfusion
  BUN after 25 minutes renal ischemia, mean: 14.03
[1]; 24 hours after reperfusion
  BUN after 25 minutes renal ischemia, mean: 38.86
[1]; 72 hours after reperfusion
  BUN after 25 minutes renal ischemia, mean: 32.8875
[1]; t = 0 hr (before clamping)
  BUN after 25 minutes renal ischemia, mean: 8.167
[2]; LPS dose 10.5
  mice scored D (dead), effect at t = 48 hours: 4
  mice with sickness score 3, effect at t = 24 hours: 1
  mice with sickness score 3, effect at t = 48 hours: 1
  mice with sickness score 5, effect at t = 24 hours: 4
[2]; LPS dose 11
  mice scored D (dead), effect at t = 24 hours: 1
  mice scored D (dead), effect at t = 48 hours: 4
  mice with sickness score 3, effect at t = 24 hours: 1
  mice with sickness score 3, effect at t = 48 hours: 2
  mice with sickness score 4, effect at t = 24 hours: 1
  mice with sickness score 5, effect at t = 24 hours: 3
